Measured values published in ChEMBL document CHEMBL1153748 (J Med Chem, 2010).

Columns and labels:
[1] = target: T1, Peroxisome proliferator-activated receptor delta (Homo sapiens, UniProt Q03181)
T1 sequence (Q03181 whole entry): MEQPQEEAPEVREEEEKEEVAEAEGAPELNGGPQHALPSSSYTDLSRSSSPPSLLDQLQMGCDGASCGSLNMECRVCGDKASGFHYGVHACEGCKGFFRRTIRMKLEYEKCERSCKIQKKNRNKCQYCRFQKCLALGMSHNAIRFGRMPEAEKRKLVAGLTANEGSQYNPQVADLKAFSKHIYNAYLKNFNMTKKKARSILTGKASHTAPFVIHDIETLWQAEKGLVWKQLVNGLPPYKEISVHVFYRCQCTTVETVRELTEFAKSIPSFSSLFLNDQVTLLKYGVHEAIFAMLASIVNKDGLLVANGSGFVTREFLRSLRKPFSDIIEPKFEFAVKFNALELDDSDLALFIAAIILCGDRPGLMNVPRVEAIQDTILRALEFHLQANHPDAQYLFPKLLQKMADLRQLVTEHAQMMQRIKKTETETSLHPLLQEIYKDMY

[2] = target: T2, Peroxisome proliferator-activated receptor alpha (Homo sapiens, UniProt Q07869); experiment: Agonist activity at human PPARalpha ligand binding domain expressed in human 293T cells co-transfected with Gal4-DBD by luciferase transactivation assay; type: cell-based
T2 sequence (Q07869 whole entry): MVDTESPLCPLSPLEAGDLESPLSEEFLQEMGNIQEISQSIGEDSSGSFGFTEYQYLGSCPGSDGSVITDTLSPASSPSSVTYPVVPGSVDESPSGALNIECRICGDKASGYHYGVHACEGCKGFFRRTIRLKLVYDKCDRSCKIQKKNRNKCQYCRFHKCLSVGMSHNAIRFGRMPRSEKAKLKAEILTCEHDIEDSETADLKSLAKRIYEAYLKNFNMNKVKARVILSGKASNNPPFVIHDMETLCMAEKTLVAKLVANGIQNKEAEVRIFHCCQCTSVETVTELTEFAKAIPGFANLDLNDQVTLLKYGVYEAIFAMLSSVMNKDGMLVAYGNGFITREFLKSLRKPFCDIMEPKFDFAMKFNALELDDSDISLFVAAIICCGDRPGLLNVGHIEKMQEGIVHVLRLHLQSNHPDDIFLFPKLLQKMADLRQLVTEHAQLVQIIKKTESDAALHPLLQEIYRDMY

[3] = target: T3, Peroxisome proliferator-activated receptor gamma (Homo sapiens, UniProt P37231); type: cell-based, 293T
T3 sequence (P37231 whole entry): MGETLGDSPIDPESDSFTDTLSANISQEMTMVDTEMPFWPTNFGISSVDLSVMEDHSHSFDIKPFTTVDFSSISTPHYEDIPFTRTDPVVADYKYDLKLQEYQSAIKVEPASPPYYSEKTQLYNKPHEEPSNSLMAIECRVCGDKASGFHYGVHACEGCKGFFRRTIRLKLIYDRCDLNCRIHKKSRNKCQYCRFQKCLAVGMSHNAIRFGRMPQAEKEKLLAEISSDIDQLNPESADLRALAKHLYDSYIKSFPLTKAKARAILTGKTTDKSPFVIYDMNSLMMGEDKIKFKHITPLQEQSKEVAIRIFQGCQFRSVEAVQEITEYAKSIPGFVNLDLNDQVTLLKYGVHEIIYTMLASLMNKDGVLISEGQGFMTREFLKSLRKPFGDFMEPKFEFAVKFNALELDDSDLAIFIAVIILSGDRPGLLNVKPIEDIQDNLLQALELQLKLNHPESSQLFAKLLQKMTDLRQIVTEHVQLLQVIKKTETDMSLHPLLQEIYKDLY

EC50 [1] [µM] | EC50 ([2]; read-out: EC50) [µM] | EC50 ([3]; read-out: EC50) [µM] | Structure (SMILES) | EC50 ([2]; 293t) | EC50 ([3]; 293t)
0.93 | > 10 | > 10 | COc1ccc(-c2nc(COc3ccc(OCC(=O)O)cc3)sc2-c2ccc(C(F)(F)F)cc2)cc1 | – | –
0.014 | > 10 | > 10 | COc1ncc(-c2nc(COc3ccc(OCC(=O)O)c(C)c3)oc2-c2ccc(OC(F)(F)F)cc2)cn1 | – | –
– | – | > 10 | COc1ccc(-c2nc(COc3ccc(CC(=O)O)cc3Cl)sc2-c2ccc(OC)cc2)cc1 | – | –
5.67 | > 10 | > 10 | COc1ccc(-c2nc(SCc3ccc(OCC(=O)O)c(C)c3)sc2-c2ccc(OC)cc2)cc1 | – | –
4.71 | > 10 | > 10 | Cc1cc(OCc2nc(-c3ccc(Cl)cc3)cs2)ccc1OCC(=O)O | – | –
0.23 | > 10 | > 10 | COc1ccc(-c2nc(CSc3ccc(OCC(=O)O)c(C)c3)sc2-c2ccc(C(F)(F)F)cc2)cc1 | – | –
1.39 | > 10 | > 10 | Cc1cc(OCc2nc(-c3ccc(C(F)(F)F)cc3)cs2)ccc1OCC(=O)O | – | –
0.032 | > 10 | > 10 | CCOc1ccc(-c2nc(COc3ccc(OCC(=O)O)c(C)c3)sc2-c2ccc(OC(F)(F)F)cc2)cc1 | – | –
0.056 | > 10 | > 10 | COc1ccc(-c2nc(COc3ccc(OCC(=O)O)c(C)c3)sc2-c2ccc(OC(F)(F)F)cc2)cc1F | – | –
0.035 | > 10 | > 10 | CCCOc1ccc(-c2nc(COc3ccc(OCC(=O)O)c(C)c3)sc2-c2ccc(OC(F)(F)F)cc2)cc1 | – | –
0.018 | > 10 | > 10 | CCC(C)Oc1ccc(-c2nc(COc3ccc(OCC(=O)O)c(C)c3)sc2-c2ccc(OC(F)(F)F)cc2)cc1 (configuration not stated) | – | –
0.51 | > 10 | > 10 | CCCc1ccc(-c2sc(COc3ccc(OCC(=O)O)c(C)c3)nc2-c2ccc(OC)cc2)cc1 | – | –
0.25 | > 10 | > 10 | COc1ccc(-c2nc(COc3ccc(OCC(=O)O)c(C)c3)sc2-c2ccc(-c3ccccc3)c(C(F)(F)F)c2)cc1 | – | –
0.07 | > 10 | > 10 | O=C(O)Cc1cccc(-c2noc(-c3ccccc3)c2C(=O)NCCOc2cc(Cl)cc(Cl)c2)c1 | – | –
0.35 | > 10 | > 10 | Cc1cc(OCc2nc(-c3ccc(C(F)(F)F)cc3)c(-c3ccc(C(F)(F)F)cc3)s2)ccc1OCC(=O)O | – | –
0.48 | > 10 | > 10 | COc1ccc(-c2nc(COc3ccc(CC(=O)O)cc3Cl)sc2-c2ccc(C(F)(F)F)cc2)cc1 | – | –
0.19 | > 10 | > 10 | COc1ccc(-c2nc(COc3ccc(OCC(=O)O)c(C)c3)sc2-c2ccccc2)cc1 | – | –
0.023 | > 10 | > 10 | Cc1cc(OCc2nc(-c3ccc(C(=O)N(C)C)cc3)c(-c3ccc(OC(F)(F)F)cc3)s2)ccc1OCC(=O)O | – | –
0.026 | > 10 | > 10 | CCCCOc1ccc(-c2nc(COc3ccc(OCC(=O)O)c(C)c3)sc2-c2ccc(OC(F)(F)F)cc2)cc1 | – | –
0.04 | > 10 | > 10 | COc1ccc(-c2nc(COc3ccc(OCC(=O)O)c(C)c3)sc2-c2ccc(C(F)(F)F)cc2)cc1 | – | –

EC50 [1] [µM] | EC50 ([2]; read-out: EC50) [µM] | EC50 ([3]; read-out: EC50) [µM] | Structure (SMILES) | EC50 ([2]; 293t) | EC50 ([3]; 293t)
2.62 | > 10 | > 10 | COc1ccc(-c2sc(COc3ccc(OCC(=O)O)c(C)c3)nc2-c2ccccc2)cc1 | – | –
0.01 | > 10 | > 10 | COc1ccc(-c2nc(COc3ccc(OCC(=O)O)c(C)c3)oc2-c2ccc(C(F)(F)F)cc2)cc1 | – | –
0.018 | > 10 | > 10 | Cc1cc(OCc2nc(-c3ccc(N4CCOCC4)nc3)c(-c3ccc(OC(F)(F)F)cc3)s2)ccc1OCC(=O)O | – | –
1.41 | > 10 | > 10 | COc1ccc(-c2nc(Sc3ccc(OCC(=O)O)c(C)c3)sc2-c2ccc(OC)cc2)cc1 | – | –
0.72 | > 10 | > 10 | COc1ccc(-c2nc(COc3ccc(OCC(=O)O)c(C)c3)sc2-c2ccc(C(C)(C)C)cc2)cc1 | – | –
0.15 | > 10 | > 10 | COc1ccc(-c2nc(COc3ccc(OCC(=O)O)c(C)c3)sc2-c2ccc(SC(F)(F)F)cc2)cc1 | – | –
6.32 | > 10 | > 10 | Cc1ccc(-c2sc(COc3ccc(OCC(=O)O)c(C)c3)nc2C)cc1 | – | –
> 10 | > 10 | > 10 | COc1ccc(-c2nc(COc3ccc(OCC(=O)O)c(C)c3)sc2-c2cccc3ccccc23)cc1 | – | –
0.47 | > 10 | > 10 | COc1ccc(-c2nc(CSc3ccc(OCC(=O)O)c(C)c3)sc2-c2ccc(OC)cc2)cc1 | – | –
> 10 | > 10 | > 10 | COc1ccc(-c2nc(COc3cccc(OCC(=O)O)c3)sc2-c2ccc(C(F)(F)F)cc2)cc1 | – | –
> 10 | > 10 | > 10 | COc1ccc(-c2nc(COc3ccc(OCC(=O)O)c(C)c3)sc2-c2ccccc2C(F)(F)F)cc1 | – | –
0.007 | > 10 | > 10 | Cc1cc(OCc2nc(-c3cccnc3)c(-c3ccc(OC(F)(F)F)cc3)o2)ccc1OCC(=O)O | – | –
0.062 | > 10 | > 10 | COc1ccc(-c2nc(CSc3ccc(CC(=O)O)cc3Cl)sc2-c2ccc(C(F)(F)F)cc2)cc1 | – | –
– | – | 5.87 | COc1ccc(-c2nc(SCCOc3ccc(CC(=O)O)cc3Cl)sc2-c2ccc(OC)cc2)cc1 | – | –
– | – | > 10 | COc1ccc(-c2nc(SCc3ccc(CC(=O)O)cc3Cl)sc2-c2ccc(OC)cc2)cc1 | – | –
– | – | 2.56 | COc1ccc(-c2nc(SCCCCOc3ccc(CC(=O)O)cc3Cl)sc2-c2ccc(OC)cc2)cc1 | – | –
– | – | > 10 | COc1ccc(-c2nc(Sc3ccc(CC(=O)O)cc3Cl)sc2-c2ccc(OC)cc2)cc1 | – | –
– | > 10 | > 10 | Cc1cc(OCc2cc(-c3ccc(C(F)(F)F)cc3)cc(-c3ccc(C(F)(F)F)cc3)c2)ccc1OCC(=O)O | – | –
– | – | 4.61 | COc1ccc(-c2nc(SCCCOc3ccc(CC(=O)O)cc3Cl)sc2-c2ccc(OC)cc2)cc1 | – | –
– | 1.3 | – | CCCc1c(OCCCSc2ccc(CC(=O)O)cc2Cl)ccc2c(CC)noc12 [L-165461] | – | –

Structure (SMILES) | EC50 [1] [µM] | EC50 ([2]; read-out: EC50) [µM] | EC50 ([3]; read-out: EC50) [µM] | EC50 ([2]; 293t) | EC50 ([3]; 293t)
COc1ccc(-c2nc(COc3ccc4c(ccn4CC(=O)O)c3)sc2-c2ccc(C(F)(F)F)cc2)cc1 | 0.34 | > 10 | > 10 | – | –
Cc1cc(CN(CC(=O)Nc2ccc(Cl)cc2Cl)C2CCCCC2)ccc1OCC(=O)O | 0.003 | – | – | Not Active | Not Active
COc1ccc(-c2nc(COc3ccc(OCC(=O)O)c(C)c3)oc2-c2ccc(-c3ccccc3)cc2)cc1 | 0.01 | > 10 | > 10 | – | –
Cc1cc(OCc2nc(-c3ccc(N4CCCC4)cc3)c(-c3ccc(OC(F)(F)F)cc3)s2)ccc1OCC(=O)O | 0.41 | > 10 | > 10 | – | –
COc1ccc(-c2nc(COc3ccc(OCC(=O)O)c(C)c3)sc2-c2ccc3ccccc3c2)cc1 | 0.02 | > 10 | > 10 | – | –
Cc1cc(OCc2nc(-c3ccc4c(c3)OCO4)c(-c3ccc(OC(F)(F)F)cc3)s2)ccc1OCC(=O)O | 0.031 | > 10 | > 10 | – | –
COc1ccc(-c2nc(COc3ccc(OCC(=O)O)c(C)c3)oc2-c2cnc3ccccc3c2)cc1 | 0.11 | > 10 | > 10 | – | –
Cc1cc(OCc2nc(-c3ccc(-c4ccccc4)cc3)c(-c3ccc(-c4ccccc4)cc3)s2)ccc1OCC(=O)O | 0.13 | > 10 | > 10 | – | –
COc1ccc(-c2nc(COc3ccc(OCC(=O)O)c(C)c3)sc2-c2ccc(Cl)nc2)cc1 | 0.88 | > 10 | > 10 | – | –
